From patent publication US8546563B2, “Compounds which modulate the CB2 receptor” (Boehringer Ingelheim International GmbH, priority 2007, dated 2013)

What follows are molecules tested against T1, human CB2R (Homo sapiens, UniProt P34972) (assay: CB2R mediated modulation of cAMP synthesis). Details: CHO cells expressing human CB2R; inhibition of forskolin-stimulated cAMP synthesis (agonist); read-out: CB2 EC50.
T1 construct: host or cells: CHO cells
Type: cell-based
Experimental: B. CB2R Mediated Modulation of cAMP Synthesis:
Compounds of the invention were evaluated for their CB2 agonist or inverse agonistic activity in accordance with the following experimental method.
CHO cells expressing human CB2R (Euroscreen) were plated at a density of 5000 cells per well in 384 well plates and incubated overnight at 37° C. After removing the media, the cells were treated with test compounds diluted in stimulation buffer containing 1 mM IBMX, 0.25% BSA and 10 uM Forskolin. The assay was incubated for 30 minutes at 37° C. Cells were lysed and the cAMP concentration was measured using DiscoverX-XS cAMP kit, following the manufacturer's protocol. In this setting, agonists will decrease forskolin induced production of cAMP while inverse agonists will further increase forskolin induced production of cAMP. EC50 of agonists were calculated as follows. The maximal amount of cAMP produced by forskolin compared to the level of cAMP inhibited by 1 uM CP55940 is defined as 100%. The EC50 value of each test compound was determined as the concentration at which 50% of the forskolin-stimulated cAMP synthesis was inhibited. Data was analyzed using a four-parameter logistic model. (Model 205 of XLfit 4.0).

T1 sequence (P34972 whole entry): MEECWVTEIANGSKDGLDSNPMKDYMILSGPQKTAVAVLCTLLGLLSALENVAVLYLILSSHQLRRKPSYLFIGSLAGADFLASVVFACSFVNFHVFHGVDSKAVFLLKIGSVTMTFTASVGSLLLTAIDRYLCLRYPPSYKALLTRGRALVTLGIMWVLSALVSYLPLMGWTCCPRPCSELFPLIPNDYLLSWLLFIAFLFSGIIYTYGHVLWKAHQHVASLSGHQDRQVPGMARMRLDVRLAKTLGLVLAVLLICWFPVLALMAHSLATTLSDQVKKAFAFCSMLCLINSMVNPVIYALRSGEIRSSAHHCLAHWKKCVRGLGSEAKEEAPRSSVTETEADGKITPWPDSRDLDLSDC

Structure (SMILES) | EC50 [nM]
CC(C)(C)c1cc(NC(=O)C(C)(C)S(=O)(=O)N2CCC2)ccn1 [Example 82, 2-(Azetidine-1-sulfonyl)-N-(2-tert-butyl-pyridin-4-yl)-2-methyl-propionamide] | 37
CC(C)(C)c1cccc(NC(=O)C(C)(C)S(=O)(=O)N2CCC2)c1 [Example 65, 2-(Azetidine-1-sulfonyl)-N-(3-tert-butyl-phenyl)-2-methyl-propionamide] | 17
CC(C)(C(=O)Nc1nc2ccccc2s1)S(=O)(=O)N1CCC1 [Example 50, 2-(Azetidine-1-sulfonyl)-N-benzothiazol-2-yl-2-methyl-propionamide] | 26
CCC(C)c1cc(NC(=O)C(C)(C)S(=O)(=O)N2CCC2)on1 (stereo not shown) [Example 73, 2-(Azetidine-1-sulfonyl)-N-(3-sec-butyl-isoxazol-5-yl)-2-methyl-propionamide] | 14
CC(C)(C)c1cc(NC(=O)C(C)(C)S(=O)(=O)N2CCOCC2)no1 [Example 40] | 47
CC(C)(C(=O)Nc1nc2c(s1)CCCC2)S(=O)(=O)N1CCC1 | 62
CC(C)(C(=O)Nc1nsc(-c2ccccc2)n1)S(=O)(=O)N1CCC1 | 72
CC(C)(C)c1cc(NC(=O)C(C)(C)S(=O)(=O)NC2CCCCC2)no1 [Example 8, N-(5-tert-Butyl-isoxazol-3-yl)-2-cyclohexylsulfamoyl-2-methyl-propionamide] | 2.4
CC(C)(C)c1csc(NC(=O)C(C)(C)S(=O)(=O)N2CCC2)n1 [Example 44, 2-(Azetidine-1-sulfonyl)-N-(4-tert-butyl-thiazol-2-yl)-2-methyl-propionamide] | 14
CC(C)(C)c1cc(NC(=O)C(C)(C)S(=O)(=O)NC2CCCC2)no1 [Example 10, N-(5-tert-Butyl-isoxazol-3-yl)-2-cyclopentylsulfamoyl-2-methyl-propionamide] | 13
CCc1sc(NC(=O)C(C)(C)S(=O)(=O)N2CCC2)nc1-c1ccccc1 [Example 54, 2-(Azetidine-1-sulfonyl)-N-(5-ethyl-4-phenyl-thiazol-2-yl)-2-methyl-propionamide] | 6.6
Cc1nc(NC(=O)C(C)(C)S(=O)(=O)N2CCC2)sc1C(C)(C)C | 2.5
CC(C)(C(=O)Nc1nc(-c2ccc(F)cc2)cs1)S(=O)(=O)N1CCC1 | 19
CC(C)(C(=O)Nc1nc(-c2ccc(Cl)cc2)cs1)S(=O)(=O)N1CCC1 | 8.9
CCCCNS(=O)(=O)C(C)(C)C(=O)Nc1nc(C(C)(C)C)cs1 [Example 25, 2-Butylsulfamoyl-N-(4-tert-butyl-thiazol-2-yl)-2-methyl-propionamide] | 32
CC(C)(C)c1cc(NC(=O)C(C)(C)S(=O)(=O)N2CCCCC2)no1 [Example 9, N-(5-tert-Butyl-isoxazol-3-yl)-2-methyl-2-(piperidine-1-sulfonyl)-propionamide] | 6.5
CC(C)(C(=O)Nc1nc(C2CCCCC2)cs1)S(=O)(=O)N1CCC1 [Example 55, 2-(Azetidine-1-sulfonyl)-N-(4-cyclohexyl-thiazol-2-yl)-2-methyl-propionamide] | 22
CC(C)(C(=O)Nc1nnc(-c2ccccc2)[nH]1)S(=O)(=O)N1CCC(F)C1 (stereo not shown) | 5.1
CC(C)(C)c1cc(NC(=O)C(C)(C)S(=O)(=O)N2CC(F)(F)C2)no1 | 5
CN(c1ccccc1)S(=O)(=O)C(C)(C)C(=O)Nc1nc(C(C)(C)C)cs1 [N-(4-tert-Butyl-thiazol-2-yl)-2-methyl-2-(methyl-phenyl-sulfamoyl)-propionamide] | 42

Structure (SMILES) | EC50 [nM]
CC(C)c1cc(NC(=O)C(C)(C)S(=O)(=O)N2CCC2)on1 [Example 74, 2-(Azetidine-1-sulfonyl)-N-(3-isopropyl-isoxazol-5-yl)-2-methyl-propionamide] | 108
CC(C)(C(=O)Nc1nnc(-c2ccccc2)[nH]1)S(=O)(=O)N1CCC1 | 11
CC(C)(C)c1cc(NC(=O)C(C)(C)S(=O)(=O)N2CCC(F)C2)sn1 (stereo not shown) | 83
Cn1nc(C(C)(C)C)cc1NC(=O)C(C)(C)S(=O)(=O)N1CCOCC1 | 79
CC(C)(C(=O)Nc1ccc(C(F)(F)F)cc1F)S(=O)(=O)N1CCC1 | 86
CC(C)(C)c1cc(NC(=O)C(C)(C)S(=O)(=O)N2CCC2)on1 [Example 47, 2-(Azetidine-1-sulfonyl)-N-(3-tert-butyl-isoxazol-5-yl)-2-methyl-propionamide] | 20
CCCCNS(=O)(=O)C(C)(C)C(=O)Nc1cc(C(C)(C)C)on1 [Example 24, N-(5-tert-Butyl-isoxazol-3-yl)-2-butylsulfamoyl-2-methyl-propionamide] | 10
CCCNS(=O)(=O)C(C)(C)C(=O)Nc1cc(C(C)(C)C)on1 [Example 35, N-(5-tert-Butyl-isoxazol-3-yl)-2-methyl-2-propylsulfamoyl-propionamide] | 33
CC(C)(C)c1cc(NC(=O)C(C)(C)S(=O)(=O)N2CCCC2)no1 [Example 6, N-(5-tert-Butyl-isoxazol-3-yl)-2-methyl-2-(pyrrolidine-1-sulfonyl)-propionamide] | 1.3
CC(C)(C)c1cc(NC(=O)C(C)(C)S(=O)(=O)N2CCC(F)(F)CC2)no1 [N-(5-tert-Butyl-isoxazol-3-yl)-2-(4,4-difluoro-piperidine-1-sulfonyl)-2-methyl-propionamide] | 2.5
CC(C)(C(=O)Nc1nc(-c2cccs2)cs1)S(=O)(=O)N1CCC1 [Example 53, 2-(Azetidine-1-sulfonyl)-2-methyl-N-(4-thiophen-2-yl-thiazol-2-yl)-propionamide] | 41
CCCCN(C)S(=O)(=O)C(C)(C)C(=O)Nc1cc(C(C)(C)C)on1 [Example 41, N-(5-tert-Butyl-isoxazol-3-yl)-2-(butyl-methyl-sulfamoyl)-2-methyl-propionamide] | 1.7
CC(C)(C(=O)Nc1nnc(-c2ccccc2)[nH]1)S(=O)(=O)N1CCOCC1 | 86
CC1CCCCN1S(=O)(=O)C(C)(C)C(=O)Nc1cc(C(C)(C)C)on1 (stereo not shown) | 97
CC(C)(C)c1cc(NC(=O)C(C)(C)S(=O)(=O)N2CC[C@@H](F)C2)no1 | 5.7
CC(C)(C)c1cc(NC(=O)C(C)(C)S(=O)(=O)NC2CC2)no1 [Example 7, N-(5-tert-Butyl-isoxazol-3-yl)-2-cyclopropylsulfamoyl-2-methyl-propionamide] | 58
CC(C)(C)c1cc(NC(=O)C(C)(C)S(=O)(=O)N2CCC2)no1 [Example 5, 2-(Azetidine-1-sulfonyl)-N-(5-tert-butyl-isoxazol-3-yl)-2-methyl-propionamide] | 3.6
CC(C)(C)c1ccc(NC(=O)C(C)(C)S(=O)(=O)N2CCC2)cc1 [Example 58, 2-(Azetidine-1-sulfonyl)-N-(4-tert-butyl-phenyl)-2-methyl-propionamide] | 3.1
CC(C)(C)c1cc(NC(=O)C(C)(C)S(=O)(=O)N2CCOCC2)on1 [Example 85, N-(3-tert-Butyl-isoxazol-5-yl)-2-methyl-2-(morpholine-4-sulfonyl)-propionamide] | 15
Cc1sc(NC(=O)C(C)(C)S(=O)(=O)N2CCC2)nc1-c1ccc(F)cc1 | 17
